Data from PubChem BioAssay (NCI).
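A five-concentration, 48-hour dose response in 96-well plates underlies each endpoint, interpolated linearly between surrounding concentrations. The concentration for 50% growth inhibition is given as GI50. The concentration for full growth arrest is given as TGI.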

Assays:
Test in all cases: inhibition of tumour cell growth, NCI panel, 48 h
MOLT-4 leukemia = system: MOLT-4 leukemia
TK-10 renal = system: TK-10 renal
SK-MEL-5 melanoma = system: SK-MEL-5 melanoma
HCC-2998 colon = system: HCC-2998 colon
HOP-62 NSCLC = system: HOP-62 NSCLC
U251 CNS = system: U251 CNS
OVCAR-8 ovarian = system: OVCAR-8 ovarian
A549 NSCLC = system: A549 NSCLC
SK-MEL-2 melanoma = system: SK-MEL-2 melanoma
HCT-15 colon = system: HCT-15 colon
NCI-H522 lung = system: NCI-H522 lung
CCRF-CEM leukemia = system: CCRF-CEM leukemia
M14 melanoma = system: M14 melanoma
RXF 393 renal = system: RXF 393 renal
HS 578T breast = system: HS 578T breast
A498 renal = system: A498 renal
BT-549 breast = system: BT-549 breast
MALME-3M melanoma = system: MALME-3M melanoma
SR leukemia = system: SR leukemia
SNB-19 CNS = system: SNB-19 CNS
OVCAR-5 ovarian = system: OVCAR-5 ovarian
SNB-75 CNS = system: SNB-75 CNS
MDA-MB-435 = system: MDA-MB-435
UACC-62 melanoma = system: UACC-62 melanoma
HL-60(TB) leukemia = system: HL-60(TB) leukemia
PC-3 prostate = system: PC-3 prostate
HT29 colon = system: HT29 colon
KM12 colon = system: KM12 colon
RPMI-8226 leukemia = system: RPMI-8226 leukemia
ACHN renal = system: ACHN renal
HOP-92 NSCLC = system: HOP-92 NSCLC
MCF7 breast = system: MCF7 breast
UO-31 renal = system: UO-31 renal
IGROV1 ovarian = system: IGROV1 ovarian
SW-620 colon = system: SW-620 colon
SK-OV-3 ovarian = system: SK-OV-3 ovarian
OVCAR-4 ovarian = system: OVCAR-4 ovarian
OVCAR-3 ovarian = system: OVCAR-3 ovarian
K-562 leukemia = system: K-562 leukemia
SF-295 CNS = system: SF-295 CNS
NCI-H460 lung = system: NCI-H460 lung
UACC-257 melanoma = system: UACC-257 melanoma
CAKI-1 renal = system: CAKI-1 renal
786-0 renal = system: 786-0 renal
SF-268 CNS = system: SF-268 CNS
MDA-MB-231 breast = system: MDA-MB-231 breast
NCI-H23 lung = system: NCI-H23 lung
SF-539 CNS = system: SF-539 CNS
SN12C renal = system: SN12C renal
SK-MEL-28 melanoma = system: SK-MEL-28 melanoma
T-47D breast = system: T-47D breast
LOX IMVI melanoma = system: LOX IMVI melanoma
DU-145 prostate = system: DU-145 prostate
COLO 205 colon = system: COLO 205 colon
NCI/ADR-RES ovarian = system: NCI/ADR-RES ovarian
HCT-116 colon = system: HCT-116 colon

Cc1cccc(-n2cnc3cc(C(=O)N4CCCCC4)ccc32)c1
GI50 (MOLT-4 leukemia): > 100 µM | TGI (MOLT-4 leukemia): > 100 µM | GI50 (TK-10 renal): > 100 µM | TGI (TK-10 renal): > 100 µM | GI50 (SK-MEL-5 melanoma): 20 µM | TGI (SK-MEL-5 melanoma): 53.1 µM | GI50 (HCC-2998 colon): > 100 µM | TGI (HCC-2998 colon): > 100 µM | GI50 (HOP-62 NSCLC): > 100 µM | TGI (HOP-62 NSCLC): > 100 µM | GI50 (U251 CNS): 62.6 µM | TGI (U251 CNS): > 100 µM | GI50 (OVCAR-8 ovarian): 91.9 µM | TGI (OVCAR-8 ovarian): > 100 µM | GI50 (A549 NSCLC): 85.5 µM | TGI (A549 NSCLC): > 100 µM | GI50 (SK-MEL-2 melanoma): > 100 µM | TGI (SK-MEL-2 melanoma): > 100 µM | GI50 (HCT-15 colon): 56.6 µM | TGI (HCT-15 colon): > 100 µM | GI50 (NCI-H522 lung): > 100 µM | TGI (NCI-H522 lung): > 100 µM | GI50 (CCRF-CEM leukemia): > 100 µM | TGI (CCRF-CEM leukemia): > 100 µM | GI50 (M14 melanoma): > 100 µM | TGI (M14 melanoma): > 100 µM | GI50 (RXF 393 renal): 23.9 µM | TGI (RXF 393 renal): > 100 µM | GI50 (HS 578T breast): 72.7 µM | TGI (HS 578T breast): > 100 µM | GI50 (A498 renal): 51.3 µM | TGI (A498 renal): > 100 µM | GI50 (BT-549 breast): 97 µM | TGI (BT-549 breast): > 100 µM | GI50 (MALME-3M melanoma): > 100 µM | TGI (MALME-3M melanoma): > 100 µM | GI50 (SR leukemia): > 100 µM | TGI (SR leukemia): > 100 µM | GI50 (SNB-19 CNS): 48.8 µM | TGI (SNB-19 CNS): > 100 µM | GI50 (OVCAR-5 ovarian): > 100 µM | TGI (OVCAR-5 ovarian): > 100 µM | GI50 (SNB-75 CNS): 30 µM | TGI (SNB-75 CNS): > 100 µM | GI50 (MDA-MB-435): > 100 µM | TGI (MDA-MB-435): > 100 µM | GI50 (UACC-62 melanoma): 48 µM | TGI (UACC-62 melanoma): > 100 µM | GI50 (HL-60(TB) leukemia): > 100 µM | TGI (HL-60(TB) leukemia): > 100 µM | GI50 (PC-3 prostate): > 100 µM | TGI (PC-3 prostate): > 100 µM | GI50 (HT29 colon): > 100 µM | TGI (HT29 colon): > 100 µM | GI50 (KM12 colon): > 100 µM | TGI (KM12 colon): > 100 µM | GI50 (RPMI-8226 leukemia): > 100 µM | TGI (RPMI-8226 leukemia): > 100 µM | GI50 (ACHN renal): > 100 µM | TGI (ACHN renal): > 100 µM | GI50 (HOP-92 NSCLC): 41.4 µM | TGI (HOP-92 NSCLC): > 100 µM | GI50 (MCF7 breast): 48.4 µM | TGI (MCF7 breast): > 100 µM | GI50 (UO-31 renal): 29.8 µM | TGI (UO-31 renal): > 100 µM | GI50 (IGROV1 ovarian): > 100 µM | TGI (IGROV1 ovarian): > 100 µM | GI50 (SW-620 colon): > 100 µM | TGI (SW-620 colon): > 100 µM | GI50 (SK-OV-3 ovarian): > 100 µM | TGI (SK-OV-3 ovarian): > 100 µM | GI50 (OVCAR-4 ovarian): 46 µM | TGI (OVCAR-4 ovarian): > 100 µM | GI50 (OVCAR-3 ovarian): 54.9 µM | TGI (OVCAR-3 ovarian): > 100 µM | GI50 (K-562 leukemia): 59.9 µM | TGI (K-562 leukemia): > 100 µM | GI50 (SF-295 CNS): 65.1 µM | TGI (SF-295 CNS): > 100 µM | GI50 (NCI-H460 lung): > 100 µM | TGI (NCI-H460 lung): > 100 µM | GI50 (UACC-257 melanoma): > 100 µM | TGI (UACC-257 melanoma): > 100 µM | GI50 (CAKI-1 renal): > 100 µM | TGI (CAKI-1 renal): > 100 µM | GI50 (786-0 renal): > 100 µM | TGI (786-0 renal): > 100 µM | GI50 (SF-268 CNS): > 100 µM | TGI (SF-268 CNS): > 100 µM | GI50 (MDA-MB-231 breast): 92.2 µM | TGI (MDA-MB-231 breast): > 100 µM | GI50 (NCI-H23 lung): > 100 µM | TGI (NCI-H23 lung): > 100 µM | GI50 (SF-539 CNS): 85.5 µM | TGI (SF-539 CNS): > 100 µM | GI50 (SN12C renal): > 100 µM | TGI (SN12C renal): > 100 µM | GI50 (SK-MEL-28 melanoma): 59.1 µM | TGI (SK-MEL-28 melanoma): > 100 µM | GI50 (T-47D breast): 28 µM | TGI (T-47D breast): 93.1 µM | GI50 (LOX IMVI melanoma): > 100 µM | TGI (LOX IMVI melanoma): > 100 µM | GI50 (DU-145 prostate): > 100 µM | TGI (DU-145 prostate): > 100 µM | GI50 (COLO 205 colon): 49.9 µM | TGI (COLO 205 colon): > 100 µM | GI50 (NCI/ADR-RES ovarian): 37.9 µM | TGI (NCI/ADR-RES ovarian): > 100 µM | GI50 (HCT-116 colon): > 100 µM | TGI (HCT-116 colon): > 100 µM
